Measured values published in ChEMBL document CHEMBL5236598, “Lead Optimization and Avoidance of Metabolic-perturbing Motif Developing Novel Diarylpyrimidines as Potent HIV-1 NNRTIs” (J Med Chem, 2022).

Legend:
[1] = Selectivity index, ratio of CC50 for cytotoxicity against human MT4 cells to EC50 for antiviral activity against HIV-1 RES056 harboring RT K103N/Y181C double mutant infected in human MT4 cells; format: toxicity, cell-based; conditions: read-out: Ratio CC50/EC50
[2] = Selectivity index, ratio of CC50 for cytotoxicity against human MT4 cells to EC50 for antiviral activity against wild type HIV-1 IIIB infected in human MT4 cells; format: toxicity, cell-based; conditions: read-out: Ratio CC50/EC50
[3] = system: Human immunodeficiency virus 1; experiment: Antiviral activity against HIV-1 RES056 harboring RT K103N/Y181C double mutant infected in human MT4 cells assessed as protection against virus-induced cytopathic effect incubated for 5 days by MTT assay; format: functional, organism-based; conditions: Human immunodeficiency virus 1, RES056, MT4, 120 h
[4] = Cytotoxicity against human MT4 cells assessed as reduction in cell viability measured after 5 days by MTT assay; format: toxicity, cell-based; conditions: time 5 day
[5] = system: Human immunodeficiency virus 1; experiment: Antiviral activity against wild type HIV-1 IIIB infected in human MT4 cells assessed as protection against virus-induced cytopathic effect incubated for 5 days by MTT assay; format: functional, organism-based; conditions: Human immunodeficiency virus 1, IIIB, MT4, 120 h

| Compound | selectivity ratio [1] | selectivity ratio [2] | EC50 [3] | CC50 at 120 h [4] | EC50 [5] |
| --- | --- | --- | --- | --- | --- |
| Cc1cc(-c2ccc(F)cc2)cc(C)c1Oc1nc(Nc2ccc(C#N)nc2)nc2ccsc12 | < 1 | 14 | > 6.13 µM | 6.13 µM | 0.451 µM |
| Cc1cc(C#N)cc(C)c1Oc1nc(NC2CCN(c3c(F)cc(NS(N)(=O)=O)cc3F)CC2)nc2ccsc12 | 2 | 357 | 7.51 µM | 12.6 µM | 0.0353 µM |
| Cc1cc(/C=C/C#N)cc(C)c1Oc1nc(Nc2ccc(C#N)c(F)c2)nc2cc[nH]c12 | 4.1 | 42 | 45.8 µM | 188 µM | 4.47 µM |
| Cc1cc(/C=C/C#N)cc(C)c1Oc1nc(NC2CCN(c3ccc([N+](=O)[O-])cc3F)CC2)nc2ccsc12 | < 1 | 101 | > 14.2 µM | 14.2 µM | 0.14 µM |
| N#C/C=C/c1cc(F)c(Oc2nc(Nc3ccc(C#N)nc3)nc3sccc23)c(F)c1 | 1.7 | 1840 | 7.55 µM | 12.8 µM | 0.00698 µM |
| Cc1cc(-c2ccc(C#N)cc2)cc(C)c1Oc1nc(Nc2ccc(C#N)c(F)c2)nc2sccc12 | > 517 | > 3010 | 0.493 µM | > 254 µM | 0.0847 µM |
| Cc1cc(C#N)cc(C)c1Oc1nc(NC2CCN(c3ccc([N+](=O)[O-])cc3F)CC2)nc2ccsc12 | < 1 | 23100 | > 30.3 µM | 740 µM | 0.0321 µM |
| Cc1cc(-c2ccc(F)cc2)cc(C)c1Oc1nc(Nc2ccc(C#N)c(F)c2)nc2ccsc12 | 11 | 140 | 8.6 µM | 97.3 µM | 0.695 µM |
| Cc1cc(/C=C/C#N)cc(C)c1Oc1nc(NC2CCN(c3c(F)cc(N)cc3F)CC2)nc2ccsc12 | 5 | 246 | 1.57 µM | 7.88 µM | 0.032 µM |
| Cc1cc(-c2ccc(C#N)cc2)cc(C)c1Oc1nc(Nc2ccc(C#N)nc2)nc2ccsc12 | 563 | 28100 | 0.381 µM | 214 µM | 0.00762 µM |
| Cc1cc(-c2ccc(F)cc2)cc(C)c1Oc1nc(Nc2ccc(C#N)nc2)nc2sccc12 | < 1 | 3 | > 2.23 µM | 2.23 µM | 0.802 µM |
| Cc1cc(C#N)cc(C)c1Oc1nc(NC2CCN(c3ccc(NS(N)(=O)=O)cc3F)CC2)nc2sccc12 | 6 | 2720 | 3.41 µM | 21.5 µM | 0.0079 µM |
| Cc1cc(C#N)cc(C)c1Oc1nc(NC2CCN(c3c(F)cc(N)cc3F)CC2)nc2sccc12 | < 1 | 168 | > 5.45 µM | 5.45 µM | 0.0325 µM |
| Cc1cc(C#N)cc(C)c1Oc1nc(NC2CCN(c3ccc(N)cc3F)CC2)nc2ccsc12 | < 1 | 300 | > 12.2 µM | 12.1 µM | 0.0404 µM |
| Cc1cc(C#N)cc(C)c1Oc1nc(NC2CCN(c3ccc([N+](=O)[O-])cc3)CC2)nc2sccc12 | > 5 | > 12100 | 53.8 µM | > 249 µM | 0.0206 µM |
| N#C/C=C/c1cc(F)c(Oc2nc(Nc3ccc(C#N)c(F)c3)nc3ccsc23)c(F)c1 | 14 | 878 | 6.71 µM | 96 µM | 0.109 µM |
| Cc1cc(C#N)cc(C)c1Oc1nc(NC2CCN(c3c(F)cc(N)cc3F)CC2)nc2ccsc12 | < 1 | 146 | > 5.54 µM | 5.45 µM | 0.0374 µM |
| Cc1cc(C#N)cc(C)c1Oc1nc(NC2CCN(c3ccc(NS(N)(=O)=O)cc3)CC2)nc2sccc12 | 39 | 1930 | 0.633 µM | 24.9 µM | 0.0129 µM |
| Cc1cc(/C=C/C#N)cc(C)c1Oc1nc(NC2CCN(c3ccc([N+](=O)[O-])cc3F)CC2)nc2sccc12 | > 169 | > 7740 | 1.35 µM | > 229 µM | 0.0296 µM |
| Cc1cc(C#N)cc(C)c1Oc1nc(NC2CCN(c3c(F)cc(NS(N)(=O)=O)cc3F)CC2)nc2sccc12 | < 1 | 322 | > 3.96 µM | 3.96 µM | 0.0123 µM |

| Compound | selectivity ratio [1] | selectivity ratio [2] | EC50 [3] | CC50 at 120 h [4] | EC50 [5] |
| --- | --- | --- | --- | --- | --- |
| Cc1cc(C#N)cc(C)c1Oc1nc(NC2CCN(c3c(F)cc([N+](=O)[O-])cc3F)CC2)nc2sccc12 | < 1 | > 5170 | > 211 µM | > 233 µM | 0.0451 µM |
| Cc1cc(/C=C/C#N)cc(C)c1Oc1nc(NC2CCN(c3c(F)cc([N+](=O)[O-])cc3F)CC2)nc2sccc12 | > 8 | > 3260 | 27.4 µM | > 222 µM | 0.068 µM |
| Cc1cc(C#N)cc(C)c1Oc1nc(NC2CCN(c3ccc(N)cc3)CC2)nc2sccc12 | 18 | 864 | 1.74 µM | 31 µM | 0.0359 µM |
| Cc1cc(/C=C/C#N)cc(C)c1Oc1nc(Nc2ccc(C#N)nc2)nc2cc[nH]c12 | < 1 | 5 | > 7.94 µM | 7.94 µM | 1.63 µM |
| Cc1cc(/C=C/C#N)cc(C)c1Oc1nc(NC2CCN(c3ccc(NS(N)(=O)=O)cc3F)CC2)nc2ccsc12 | 26 | 2910 | 0.832 µM | 21.7 µM | 0.00746 µM |
| Cc1cc(C#N)cc(C)c1Oc1nc(NC2CCN(c3ccc(NS(N)(=O)=O)cc3F)CC2)nc2ccsc12 | 5 | 1080 | 4.93 µM | 24.7 µM | 0.0229 µM |
| Cc1cc(-c2ccc(F)cc2)cc(C)c1Oc1nc(Nc2ccc(C#N)c(F)c2)nc2sccc12 | 2.6 | 50 | 11.1 µM | 28.9 µM | 0.583 µM |
| N#C/C=C/c1cc(F)c(Oc2nc(Nc3ccc(C#N)nc3)nc3cc[nH]c23)c(F)c1 | < 1 | 197 | > 29 µM | 29 µM | 0.147 µM |
| Cc1cc(C#N)cc(C)c1Oc1nc(NC2CCN(c3c(F)cc([N+](=O)[O-])cc3F)CC2)nc2ccsc12 | < 1 | 12900 | > 30.3 µM | 740 µM | 0.057 µM |
| Cc1cc(/C=C/C#N)cc(C)c1Oc1nc(NC2CCN(c3c(F)cc(NS(N)(=O)=O)cc3F)CC2)nc2ccsc12 | 10 | 539 | 1.94 µM | 20 µM | 0.0371 µM |
| Cc1cc(C#N)cc(C)c1Oc1nc(NC2CCN(c3ccc(N)cc3F)CC2)nc2sccc12 | 10 | 1300 | 2.6 µM | 26.9 µM | 0.0207 µM |
| N#C/C=C/c1cc(F)c(Oc2nc(Nc3ccc(C#N)nc3)nc3c2COC3)c(F)c1 | 20 | 42100 | 12.2 µM | 243 µM | 0.00577 µM |
| N#C/C=C/c1cc(F)c(Oc2nc(Nc3ccc(C#N)c(F)c3)nc3cc[nH]c23)c(F)c1 | 16 | 268 | 0.63 µM | 10.2 µM | 0.038 µM |
| Cc1cc(/C=C/C#N)cc(C)c1Oc1nc(NC2CCN(c3ccc(N)cc3F)CC2)nc2sccc12 | 13 | 418 | 1.06 µM | 13.6 µM | 0.0325 µM |
| Cc1cc(-c2ccc(C#N)cc2)cc(C)c1Oc1nc(Nc2ccc(C#N)nc2)nc2sccc12 | 119 | 16600 | 1.53 µM | 181 µM | 0.0109 µM |
| Cc1cc(C#N)cc(C)c1Oc1nc(NC2CCN(c3ccc([N+](=O)[O-])cc3F)CC2)nc2sccc12 | < 1 | 935 | > 37.4 µM | 37.4 µM | 0.04 µM |
| N#C/C=C/c1cc(F)c(Oc2nc(Nc3ccc(C#N)c(F)c3)nc3sccc23)c(F)c1 | < 1 | 2240 | > 117 µM | 117 µM | 0.0524 µM |
| Cc1cc(/C=C/C#N)cc(C)c1Oc1nc(NC2CCN(c3c(F)cc([N+](=O)[O-])cc3F)CC2)nc2ccsc12 | 13 | 794 | 7.67 µM | 99.5 µM | 0.125 µM |
| Cc1cc(/C=C/C#N)cc(C)c1Oc1nc(NC2CCN(c3ccc(N)cc3F)CC2)nc2ccsc12 | 26 | 735 | 0.876 µM | 23 µM | 0.0313 µM |
| Cc1cc(-c2ccc(C#N)cc2)cc(C)c1Oc1nc(Nc2ccc(C#N)c(F)c2)nc2ccsc12 | 11 | 101 | 6.35 µM | 71.5 µM | 0.711 µM |
